Laboratory results taken from patent US20230364029A1, “POLYMORPHIC FORMS OF (R)-2-HYDROXY-2-METHYL-4-(2,4,5-TRIMETHYL-3,6-DIOXOCYCLOHEXA-1,4-DIENYL)BUTANAMIDE” (PTC THERAPEUTICS, INC., priority 2014, published 2023).

Assays:
[1] = tested on: Human dermal fibroblasts from Friedreich’s Ataxia patients (GM04078); experiment: Rescue of BSO-stressed FRDA fibroblasts; assay type: cell-based; details: Friedrich’s Ataxia, Calcein AM viability
Procedure: An initial screen was performed to identify compounds effective for the amelioration of redox disorders. Test samples were tested for their ability to rescue FRDA fibroblasts stressed by addition of L-buthionine-(S,R)-sulfoximine (BSO), as described in Jauslin et al., Hum. Mol. Genet. 11(24):3055 (2002), Jauslin et al., FASEB J. 17:1972-4 (2003), and International Patent Application WO 2004/003565.
MEM (a medium enriched in amino acids and vitamins, catalog no. 1-31F24-I) and Medium 199 (M199, catalog no. 1-21F22-I) with Earle’s Balanced Salts, without phenol red, were purchased from Bioconcept. Fetal Calf Serum was obtained from PAA Laboratories. Basic fibroblast growth factor and epidermal growth factor were purchased from PeproTech. Penicillin-streptomycin-glutamine mix, L-buthionine (S,R)-sulfoximine, and insulin from bovine pancreas were purchased from Sigma. Calcein AM was purchased from Anaspec. […]
100 microliters of PBS +Ca +Mg containing 1.2 micromolar Calcein AM were then added to each well. […] After that time fluorescence (excitation/emission wavelengths of 485 nm and 525 nm, respectively) was read on a Gemini fluorescence reader. […]

[2] = tested on: cells from patients having Rett’s Disorder (Coriell GM-17567); experiment: Fibroblast screen similar to Example 12, Rett’s Disorder cells; assay type: cell-based; details: Homo sapiens
[3] = tested on: cells from patients having Parkinson’s Disease (Coriell AG20439); experiment: Fibroblast screen similar to Example 12, Parkinson’s Disease cells; assay type: cell-based; details: Homo sapiens
[4] = tested on: cells from patients having Leber’s Hereditary Optic Neuropathy (LHON) (Coriell GM03858); experiment: Fibroblast screen similar to Example 12, LHON cells; assay type: cell-based; details: Homo sapiens
[5] = tested on: cells from patients having a CoQ2 mutation (CoQ10 Deficiency); experiment: Fibroblast screen similar to Example 12, CoQ10 Deficiency cells; assay type: cell-based; details: Homo sapiens
[6] = tested on: cells from patients having Amyotrophic Lateral Sclerosis (ALS) (Coriell ND29523); experiment: Fibroblast screen similar to Example 12, ALS cells; assay type: cell-based; details: Homo sapiens
[7] = tested on: cells from patients having Huntington’s Disease (Coriell GM 04281); experiment: Fibroblast screen similar to Example 12, Huntington’s Disease cells; assay type: cell-based; details: Homo sapiens
[8] = tested on: cells from patients having Leigh Syndrome (Coriell GMOI503A); experiment: Fibroblast screen similar to Example 12, Leigh Syndrome cells; assay type: cell-based; details: Homo sapiens
[9] = Competitive slurries of Patterns A-F; assay type: physicochemical; details: competitive slurry of Patterns A-F in 0.5% MC/water, ambient
Procedure: Competitive slurry experiments of Patterns A, B, C, D, E and F were initiated in IPA, IPA/2% water and 0.5% Methyl Cellulose in water at ambient conditions as summarized in Table 16. Approximately 100 mg of the starting material, Pattern A, was added to a glass vial fitted with a magnetic stir bar. Solvent was added to the vial and allowed to slurry with Pattern A for 15 minutes before approximately 10-20 mg of each relative Pattern (B, C, D, E and F) was added to each vial.

[10] = tested on: auditory HEI-OC 1 cells; experiment: Protection from cisplatin-induced ototoxicity (caspase3/7 activity); assay type: cell-based, mice; details: overnight pretreatment, 24 hours of 50 uM cisplatin
Procedure: The conditionally immortalized auditory HEI-OC 1 cells from long-term cultures of transgenic mice Immortomouse™ cochleas as described in Kalinec, G. et al., Audiol. Nerootol. 2003; 8, 177-189/. were maintained in high glucose Dulbecco’s modified Eagle medium (DMEM) containing 10% FBS under permissive conditions, 33° C., 10%CO2. Cells were pretreated overnight with (R)-2-hydroxy-2-methyl-4-(2,4,5-trimethyl-3,6-dioxocyclohexa-1,4-dienyl)butanamide, and apoptosis was detected by caspase3/7 activity after 24 hours of 50 uM cisplatin incubation. Cells incubated in diluent alone were the controls.

SMILES: CC1=C(C)C(=O)C(CC[C@@](C)(O)C(N)=O)=C(C)C1=O [(R)-2-hydroxy-2-methyl-4-(2,4,5-trimethyl-3,6-dioxocyclohexa-1,4-dienyl)butanamide]
- EC50 [1]: < 100 nM
- EC50 [2]: < 100 nM
- EC50 [3]: 100 to 500 nM
- EC50 [4]: < 100 nM
- EC50 [5]: < 100 nM
- EC50 [6]: < 100 nM
- EC50 [7]: < 100 nM
- EC50 [8]: < 100 nM
- XRPD 24 hrs [9]: A/C
- EC25 [10]: +++ (+++ indicates less than 100 micromolar)
